No end group written: not given here.
Key:
HUVECs [1] = test: Blood vessel (tube) formation assay on Matrigel; type: cell-based, human; conditions: 4 hours, vs. control
Method: HUVECs (20,000 cells/well) were seed on a layer of previously polymerized Matrigel and treated with or without the first peptide and the second peptide. The Matrigel culture was incubated at 37° C. After 4 hours, changes in cell morphology were captured using a phase-contrast microscope (×40). Each sample was assayed in duplicate, and independent experiments were repeated three times. *P<0.05, **P,0.01, ***P<0.001 (vs. control).
HUVECs (20,000 cells/well) were seeded on a layer of previously polymerized Matrigel, treated with the visfatin-derived peptides, and then incubated in a 5% CO2 incubator at 37° C. for 4 hours. Then, changes in the cell morphology were observed and photographed using a phase-contrast microscope at 40× magnification. Each sample was assayed in duplicate, and independent experiments were repeated three times. Angiogenesis was analyzed with ImageJ software using an angiogenesis analyzer (Bethesda, MD, USA).

HUVECs [2] = test: MTT cytotoxicity assay; type: cell-based, human; conditions: 0.1 μM, 0.5 μM, 1.0 μM and 2.0 μM, incubated overnight
Method: HUVECS (PromoCell, Heidelberg, Germany) were cultured in endothelial basal medium 2 (EBM) supplemented with Supplement Mix (PromoCell) containing 2% fetal bovine serum (FBS). The Supplement Mix consisted of 5 ng/mL epidermal growth factor (EGF), 10 ng/ml basic fibroblast growth factor (bFGF), 20 ng/mL insulin-like growth factor (IGF), 0.5 ng/mL VEGF, 1 ug/mL ascorbic acid, 22.5 ug/mL heparin, and 0.2 ug/mL hydrocortisone. In some experiments, cells were cultured in EBM medium supplemented with Supplement Mix, and cells between passages 2 and 7 were used in all experiments. Cells were cultured for 24 hours in a 5% CO2 incubator at a 37° C.
HUVECs were seeded at a density of 10,000 cells in 96-well plates (SPL, Korea) and incubated overnight with EBM-2 medium containing visfatin (1,000 ng/ml) and each of the peptides with the highest affinity, obtained from docking simulation, in a 5% CO2 incubator at 37° C. MIT reagent (Sigma-Aldrich) was added to each well to a final concentration of 0.5 mg/ml. After 4 hours, the medium was removed, the formazan crystals formed in the cells were dissolved in dimethyl sulfoxide (DMSO), and the absorbance of the formazan solution was measured at a wavelength of 540 nm using a Synergy HTX Multi-Mode Reader (BIO-TEK, Vermont, USA). Each sample was assayed in triplicate. […]

Substance	number of master junctions (tube formation) (HUVECs [1]; second peptide except at the 2.0 μM concentration)	number of meshes (tube formation) (HUVECs [1]; positive controls)	cell viability of HUVECs (cytotoxicity) (HUVECs [2])
basic fibroblast growth factor [bFGF]	significantly increased	not significantly changed	
LEYKLHDFGY [Peptide 1, LEYKLHDFGY]			did not affect the viability of the cells
EYKLHDFGYRGV [Peptide 2, EYKLHDFGYRGV]			did not affect the viability of the cells
